Measurements as given in paper PMC6386991 (International Journal of Molecular Sciences, 2019).
Where two headings read alike, the source gives them in different places.

Legend:
[1] = molecular target: T1, equine serum BuChE (EqBuChE) (Equus caballus, UniProt P81908); assay: biochemical; details: read-out: BuChE IC50 ± SD
T1 construct: equine serum BuChE (EqBuChE); from tissue; host or cells: equine serum

EeAChE = EeAChE (Electrophorus electricus, UniProt O42275); assay: Kinetic characterization of AChE inhibition (Lineweaver–Burk plot); type: biochemical, electric eel; details: Km and Vmax
Method: To obtain the mechanism of EeAChE inhibition, kinetic experiments were performed.
Kinetic characterization of AChE and BuChE was performed using the reported method with different concentrations of the substrate (S)—acetylthiocholine iodide (in range of […]) prepared in phosphate buffer (pH 8.0). […] Then, the inhibitor (14 µL) was added into the assay solution. Kinetic characterizations of the hydrolysis of acetylthiocholine […] catalyzed by AChE were done spectrophotometrically at 412 nm. A parallel control with no inhibitor in the mixture, allowed adjusting activities to be measured at various times.

Aβ (1–42) = Aβ (1–42) (Homo sapiens, UniProt P05067); assay: Self-induced Aβ(1–42) aggregation, Thioflavin T assay; type: biochemical
Excerpt: Aβ(1–42) is the most amyloidogenic Aβ fragment found in the AD plaques.
Amyloid β aggregation plays a definitive role in neurodegeneration and AD progression. Thus, inhibition of the Aβ aggregation has been presented as a promising approach for the AD therapy. In order to examine the ability to inhibit Aβ aggregation spectroscopic technique which is analyse with thioflavin T have been used. We investigated the best potent inhibitor towards AChE. […] As well as the study being conducted without the presence of the inhibitor. Aβ42 was dissolved in DMSO to make 125.8 µM stock solution. Each compound (10 µL) and 10 µL of Aβ42 were added into 60 µL of phosphate buffer (PBS at pH 8.0) in a 96-well plate. After shake and incubation for 24 h at 30 °C, 20 µL of 2.5 µM ThT solution in 50 mM glycine–NaOH (pH 8.5) was added. Fluorescence excitation was measured at 446 nm with emission a wavelength of 490 nm after 5 min incubation with the dye. The reported results were obtained as the mean ± SD of triplicates of three independent experiments. […]

[2] = pKa assay (UV spectra in buffers pH 5.6 to 12.4); type: physicochemical; details: phosphate buffers in methanol:water (1:1), pH 5.6 to 12.4, Experimental
Excerpt: LogP is one of properties used in Lipinski’s rule of five. Our compounds were designed as a potential drug in AD therapy. Fulfillment of Lipinski’s rule of five allows us to suppose that the compound will show adequate pharmacokinetics. […] In the chemical structure of our compound occur four nitrogen atoms with a free ion pair, which allow us to gradually ionize the whole compound at different pH value. […] Direct determination of the ratio between consecutive form of molecule allows to measure the pKa value (Figure 2). The change of distribution charge in molecule affects noticeably the change of the ultraviolet (UV) spectra. […] We used absorbance ratios and mathematical calculation allowed to estimate specific pH value for each ionized form and finally to calculate pKa values (Figure 3). The value pKa1 calculated by ChemAxon and ACD/Percepta software are close to value pKa1 obtained by our method. pKa2 value calculated by ChemAxon software and pKa2 calculated by ACD/Percepta were inflated in comparison with our experimental result pKa2 (Table 3). […]
Spectrophotometric measurement was performed in 96 wells plate by using Synergy H1 microplate reader (BioTek, Vinoosky, VT, USA) with Gen5 software (BioTek). […] Further calculations on UV spectra were performed by using mathematical ratios of absorbance 332/343 nm and 343/332 nm and according to methodology developed by Musil et al.. […]

[3] = LogP assay (HPLC, calibration curve); type: physicochemical; details: reversed-phase HPLC, Waters Xbridge C18 column; Experimental
Method: After pKa assay we decided to use TEA because of the best properties for the assay. Coefficient of determination was over 0.96 for calibration curve (Figure 3). […] LogP values calculated by ChemAxon nad ACD/Percepta software were inflated in comparison to our experimental result (Table 3).
Methanol (POCH) was used as an organic modifier. Demineralized water was purified in our faculty. Triethylamine (TEA) (Sigma Aldrich) was dissolved in concentration 30 mM in methanol and in water. Ten various isocratic mobile phases were used in calibration and assay. The first mobile phase contained 50% methanol solution with 30 mM TEA and 50% water solution with 30 mM TEA. Each next mobile phase contained 5% more methanol solution; 95% methanol solution and 5% water solution mix was used as the last mobile phase; 30 mM triethylamine in all mobile phases allowed us to analyzed basic substances. Basic solutions were used, because a neutral form of the compounds was required in logP assay. […]
The test compound was eluted by all mobile phases and obtained retention times were used to calculate logkw value. LogP value was read from calibration curve. Obtained value was compared with calculated values by online software chemicalize.com (ChemAxon 2018) and ACD/Percepta Version 14.0.0 (Advanced Chemistry Development, Inc., Metropolitan Toronto, ON, Canada).

[4] = ABTS radical scavenging assay; details: read-out: ABTS FRS50 ± SD
[5] = DPPH free-radical scavenging assay; details: read-out: DPPH FRS50 ± SD
[6] = molecular target: AChE-BACE-1A protein pair (Homo sapiens, UniProt P22303+P56817); assay: Yeast three-hybrid (Y3H) test, AChE-BACE-1A; details: 10 µM hybrid ligand, DDO/X/A agar plates
[7] = In vitro cytotoxicity assay (MTT) on CCL-110; details: human, CCL-110 cells (normal human skin fibroblasts)
Method: Cytotoxicity assay was performed on CCL-110 cell line (normal, human fibroblasts derived from skin). Test over a wide range of concentrations (including the concentrations close to the IC50 of enzymatic inhibition results) was performed.

SH-SY5Y cells [8] = assay: Neuroprotection against oxidative stress, H2O2, MTT
SH-SY5Y cells [9] = assay: Neuroprotection against rotenone/oligomycin A, co-incubation, MTT; details: R/O mixture
SH-SY5Y cells [10] = assay: Neuroprotection against rotenone/oligomycin A, pre-incubation, MTT; details: R/O mixture, compound 0.0001 µM
[11] = Homo sapiens, SH-SY5Y, read-out: % cell viability

Aβ (1–42), sequence (P05067 672-713 limits assumed): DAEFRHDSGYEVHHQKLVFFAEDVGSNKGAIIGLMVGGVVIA
T1 sequence (P81908 whole entry): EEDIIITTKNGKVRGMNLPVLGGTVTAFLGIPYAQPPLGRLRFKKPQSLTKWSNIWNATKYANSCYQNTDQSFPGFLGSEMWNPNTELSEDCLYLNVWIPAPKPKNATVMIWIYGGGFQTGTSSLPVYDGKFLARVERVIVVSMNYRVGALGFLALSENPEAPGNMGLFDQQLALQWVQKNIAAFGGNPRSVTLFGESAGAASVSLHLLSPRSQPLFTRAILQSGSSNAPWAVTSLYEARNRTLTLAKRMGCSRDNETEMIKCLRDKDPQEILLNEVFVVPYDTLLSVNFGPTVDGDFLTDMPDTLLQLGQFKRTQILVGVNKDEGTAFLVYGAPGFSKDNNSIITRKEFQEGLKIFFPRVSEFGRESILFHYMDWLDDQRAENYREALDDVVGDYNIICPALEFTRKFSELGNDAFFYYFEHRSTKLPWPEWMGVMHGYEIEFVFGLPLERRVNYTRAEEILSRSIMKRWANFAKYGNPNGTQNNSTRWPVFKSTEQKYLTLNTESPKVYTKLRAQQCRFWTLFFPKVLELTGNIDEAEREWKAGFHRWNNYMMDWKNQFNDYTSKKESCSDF
EeAChE, sequence (O42275 24-633): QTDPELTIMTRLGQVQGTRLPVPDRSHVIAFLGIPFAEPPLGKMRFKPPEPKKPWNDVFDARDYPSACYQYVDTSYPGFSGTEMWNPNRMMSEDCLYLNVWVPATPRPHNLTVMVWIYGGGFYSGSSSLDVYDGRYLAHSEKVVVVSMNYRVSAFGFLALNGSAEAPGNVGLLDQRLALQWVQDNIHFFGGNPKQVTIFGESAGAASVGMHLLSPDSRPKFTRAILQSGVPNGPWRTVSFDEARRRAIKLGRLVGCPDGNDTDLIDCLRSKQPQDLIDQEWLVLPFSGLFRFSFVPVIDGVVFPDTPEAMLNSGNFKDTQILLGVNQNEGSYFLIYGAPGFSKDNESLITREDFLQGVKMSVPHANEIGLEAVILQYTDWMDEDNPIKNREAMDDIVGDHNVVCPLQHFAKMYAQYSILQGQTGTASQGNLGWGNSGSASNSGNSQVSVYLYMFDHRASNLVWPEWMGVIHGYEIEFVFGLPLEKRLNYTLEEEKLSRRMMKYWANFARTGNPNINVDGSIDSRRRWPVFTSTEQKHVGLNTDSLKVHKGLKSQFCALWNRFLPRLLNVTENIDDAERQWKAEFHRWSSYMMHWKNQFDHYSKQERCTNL
AChE-BACE-1A protein pair, sequence (P22303 52-577): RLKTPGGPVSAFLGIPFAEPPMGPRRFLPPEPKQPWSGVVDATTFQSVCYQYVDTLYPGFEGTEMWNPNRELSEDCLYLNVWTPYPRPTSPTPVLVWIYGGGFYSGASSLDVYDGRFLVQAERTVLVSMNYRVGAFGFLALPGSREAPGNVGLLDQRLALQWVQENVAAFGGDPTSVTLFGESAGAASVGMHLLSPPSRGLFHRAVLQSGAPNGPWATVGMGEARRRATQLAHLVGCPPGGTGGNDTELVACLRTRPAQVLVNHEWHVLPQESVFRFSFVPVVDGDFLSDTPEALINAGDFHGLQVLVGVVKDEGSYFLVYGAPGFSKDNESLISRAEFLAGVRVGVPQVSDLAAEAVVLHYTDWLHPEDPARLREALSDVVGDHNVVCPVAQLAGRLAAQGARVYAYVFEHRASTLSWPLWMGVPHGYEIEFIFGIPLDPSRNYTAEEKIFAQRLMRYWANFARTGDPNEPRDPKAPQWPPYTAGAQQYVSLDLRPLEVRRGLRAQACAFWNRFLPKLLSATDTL
AChE-BACE-1A protein pair, sequence (P56817 46-457): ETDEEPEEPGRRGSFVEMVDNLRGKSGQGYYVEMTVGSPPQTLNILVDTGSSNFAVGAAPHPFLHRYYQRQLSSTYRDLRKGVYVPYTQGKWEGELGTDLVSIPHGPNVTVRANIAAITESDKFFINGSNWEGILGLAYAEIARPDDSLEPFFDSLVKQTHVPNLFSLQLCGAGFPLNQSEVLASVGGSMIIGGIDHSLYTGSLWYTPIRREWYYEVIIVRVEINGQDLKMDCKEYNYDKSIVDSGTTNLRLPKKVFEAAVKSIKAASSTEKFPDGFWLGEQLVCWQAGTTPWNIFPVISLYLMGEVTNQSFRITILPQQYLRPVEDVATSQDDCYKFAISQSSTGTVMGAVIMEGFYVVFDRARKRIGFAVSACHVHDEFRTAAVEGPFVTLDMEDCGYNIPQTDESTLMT

O=C(NCCCCCCNc1c2c(nc3ccccc13)CCC2)c1ccc(Cl)nc1 [Compound 3e]
IC50 [1]: 0.153 ± 0.02 µM | type of EeAChE inhibition (EeAChE): mixed inhibition | IC50 (Aβ (1–42)): 15 ± 0.6 µM | inhibition at 10 µM (Aβ (1–42); 10 µM compound): 40 ± 4.8% | inhibition at 25 µM (Aβ (1–42); 25 µM compound): 63 ± 4.2% | inhibition at 50 µM (Aβ (1–42); 50 µM compound): 72 ± 2.9% | inhibition at 100 µM (Aβ (1–42); 100 µM compound): 79 ± 3.2% | pKa ([2]; read-out: pKa1): 8.53 | pKa ([2]; read-out: pKa2): 11.3 | chromatographic logP [3]: 3.99 | viability at 24 h, 0.1 µM (in vitro): 100% | viability at 24 h, 1 µM (in vitro): 99.7% | viability at 24 h, 10 µM (in vitro): 93% | EC50 [4]: > 20000 µM | EC50 [5]: > 20000 µM | hybrid ligand-induced interaction AChE-BACE-1A [6]: Blue colonies, indicating putative interaction | IC50 at 48 h [7]: 0.638 µM | neuroprotective activity (in words) (SH-SY5Y cells [8]; H2O2 100 µM, compound 10–0.01 µM): at none concentration, 3e had neuroprotective activity | viability at 0.01 µM (SH-SY5Y cells [8]; [11]): 60.4% | viability at 0.1 µM (SH-SY5Y cells [8]; [11]): 29.2% | viability at 1 µM (SH-SY5Y cells [8]; [11]): 18.4% | viability at 10 µM (SH-SY5Y cells [8]; [11]): 14.3% | neuroprotective properties (in words) (SH-SY5Y cells [9]): did not have neuroprotective properties at any concentrations | neuroprotection (SH-SY5Y cells [10]): 3.98%
